The results in this text go back to article PMC9959130, “Effects of Side Chain and Peptide Bond Modifications on the Targeting Properties of Stabilized Minigastrin Analogs” (Pharmaceuticals, 2023).

Read-outs that look alike come from different tables or passages of the source. Where a SMILES comes first, the peptide text is derived from it. [ ]: non-standard residue; d: D form. The star is where a group is joined. DOTA = O=C(O)CN1CCN(CC(=O)O)CCN(CC(=O)*)CCN(CC(=O)O)CC1; 1Nal = N[C@@H](Cc1cccc2ccccc12)C(=O)O; NMeNle = CCCC[C@H](NC)C(=O)O

A short description of data set [1]: In vitro stability in human serum (intact radiopeptide by radio-HPLC). The format is in vitro ADME. Particulars: radiolabeled peptide (111In where no radiometal named), fresh human serum, 37 °C, 24 h after incubation, n = 2. On the procedure: In vitro stability studies were performed in human serum (n = 2). The radiolabeled peptides (1000 pmol/mL) were incubated at 37 °C and a sample of 100 μL was taken at 1, 4, and 24 h after incubation. After the precipitation of proteins with ACN at 1:1.5 (v/v), centrifugation (14,000 rpm, 2 min, centrifuge 5424, Eppendorf AG, Germany) and dilution with water at 1:1 (v/v), an aliquot of 100 μL of this solution was analyzed by HPLC. Radioligand breakdown was monitored and the percentage of intact radiopeptide was calculated using Chromeleon Dionex Software (Version 7.2.9.11323). Additionally, the radiolabeled peptides (1000 pmol/mL) were incubated in PBS (n = 1) at room temperature to confirm the complex stability as a control.

Data set [2] can be described thus: Distribution coefficient (LogD) in octanol/PBS. The format is physicochemical. To be noted: radiolabeled peptide (111In-labeled where the label names no radiometal); shake-flask octanol/PBS, 100 pmol/mL, 15 min shaking at 1500 rpm, γ-counter; mean ± SD, n = 8; read-out: LogD. The method, then:
The distribution coefficient (LogD) in octanol/PBS was determined by mixing 0.5 mL of the radiolabeled DOTA peptides diluted in PBS (100 pmol/mL) and 0.5 mL octanol in a 1.5 mL microcentrifuge tube (n = 8). After shaking for 15 min (MS3 Basic, IKA, Staufen, Germany) at 1500 rpm and a waiting time of 10 min to ensure appropriate separation of the two phases, 100 µL aliquots of each phase were pipetted into 4.5 mL tubes. The tubes were measured using a γ-counter (2480 Wizard2 3″, PerkinElmer Life Sciences and Analytical Instruments, formerly Wallac Oy, Turku, Finland) and the LogD value was determined using following equation: LogD=Log(cpmoctanol phase/cpmPBS phase)

Data set [3] is described as follows: Biodistribution in BALB/c nude mice bearing A431-CCK2R/A431-mock xenografts. Particulars: female, athymic BALB/c nude, mouse, iv, 20 pmol, total radioactivity, ~20 pmol, 4 h p.i. (indium-111 or lutetium-177), mean ± SD n = 4; for tissue to tissue ratio at 4 h: BALB/c nude mice; for tissue uptake at 4 h: xenografted BALB/c nude mice, i.v. The format is in vivo. On the procedure:
The overall biodistribution and tumor targeting properties of selected radiolabeled peptides were evaluated in female athymic BALB/c nude mice (Charles River, Sulzfeld, Germany, age of 7 to 9 weeks). After tumor induction with 2 × 10^6 A431-CCK2R or A431-mock cells (subcutaneously injected in 200 μL DMEM into the right and left flank) and a waiting period of 10–14 days (sufficient to achieve tumors of ∼0.25 g), mice were randomly divided into groups of four and treated with a bolus injection of 150 µL of the injectable solution containing the radiolabeled peptide via a lateral tail vein to achieve an injected radioactivity of 150–200 kBq and a total injected peptide amount of ~20 pmol (n = 4 for each radiopeptide). For DOTA-[(N-Me)1Nal^8]MGS5, additional biodistribution studies were performed with gallium-68 (~0.5 MBq, 20 pmol) and lutetium-177 (~0.5 MBq, 20 pmol). The animals were euthanatized by cervical dislocation at 1 h (gallium-68) or 4 h p.i. (indium-111/ lutetium-177). The tumors and other tissues (blood, lung, heart, muscle, spleen, intestine, liver, kidney, stomach, and pancreas) were dissected, weighed, and the radioactivity measured in the γ-counter. The rest of the body and a standard of the solution injected was also measured together with the collected samples. The percentage of injected activity per gram of tissue (% IA/g) and the tumor-to-organ activity ratio of selected tissues were calculated for each mouse and time point studied. Origin software (Microcal Origin 6.1, Northampton, MA, USA) was used for statistical analysis (independent t-test for two populations; significance level p < 0.05).

Data set [4] is described as follows: Binding to serum proteins (incubation in human serum, Sephadex G-50 size exclusion chromatography). Particulars: radiolabeled peptide (111In where no radiometal named), 37 °C, 24 h after incubation, Sephadex G-50, γ-counter, n = 2. The format is in vitro ADME. The method, then: Protein binding was determined by incubation of the radiolabeled peptides in human serum at 37 °C (500 pmol/mL, n = 2). For the time points of 1, 4, and 24 h after incubation, samples of 25 µL were subjected to Sephadex G-50 size exclusion chromatography (GE Healthcare Illustra, Little Chalfont, UK). The column and the eluate were measured using the γ-counter and the percentage of protein binding was calculated.
A general note: SEC sorts molecules by how far they enter the pores of the column.

The mark [5] stands for this setting: A431-CCK2R xenograft / blood, A431-CCK2R xenograft, read-out: tumor-to-organ ratio: blood.
[6] abbreviates: A431-CCK2R xenograft / kidney, A431-CCK2R xenograft, read-out: tumor-to-organ ratio: kidney.
The mark [7] stands for this setting: A431-CCK2R xenograft / stomach, A431-CCK2R xenograft, read-out: tumor-to-organ ratio: stomach.
The mark [8] stands for this setting: A431-CCK2R xenograft, read-out: Uptake in A431-CCK2R xenograft.
Where [9] appears, read: A431-mock xenograft, read-out: Uptake in A431-mock xenograft.
[10] abbreviates: blood, read-out: Uptake in blood.
Setting [11] is: heart, read-out: Uptake in heart.
Where [12] appears, read: intestine, read-out: Uptake in intestine.
Where [13] appears, read: kidneys, read-out: Uptake in kidneys.
The mark [14] stands for this setting: liver, read-out: Uptake in liver.
The mark [15] stands for this setting: muscle, read-out: Uptake in muscle.
The mark [16] stands for this setting: pancreas, read-out: Uptake in pancreas.
The mark [17] stands for this setting: spleen, read-out: Uptake in spleen.
[18] abbreviates: stomach, read-out: Uptake in stomach.

By fraction remaining is commonly meant what is left of the initial amount, in per cent. Take `CCCC[C@@H](C(=O)N[C@@H](CC(=O)O)C(=O)N[C@@H](Cc1ccc2ccccc2c1)C(N)=O)N(C)C(=O)[C@H](Cc1c[nH]c2ccccc12)NC(=O)CNC(=O)[C@H](Cc1ccc(O)cc1)NC(=O)[C@H](C)NC(=O)[C@@H](CCC(=O)O)NC(=O)CN1CCN(CC(=O)O)CCN(CC(=O)O)CCN(CC(=O)O)CC1` [[^111In]In-DOTA-[2Nal^8]MGS5, metal not drawn]: in data set [1], the fraction remaining at 24 h, 1000 pmol/mL was above 90%. For the same compound, the LogD in data set [2] is -1.71 ± 0.19. The tissue to tissue ratio at 4 h amounted to 399 ± 89.6 in data set [3] (setting [5]), 6.04 ± 0.87 in data set [3] (setting [6]) and 3.66 ± 0.64 in data set [3] (setting [7]). In addition, the tissue uptake at 4 h came to 25.4 ± 4.45 %ID/g in data set [3] (setting [8]); 0.17 ± 0.04 %ID/g in data set [3] (setting [9]); 0.06 ± 0.003 %ID/g in data set [3] (setting [10]); 0.08 ± 0.01 %ID/g in data set [3] (setting [11]); 0.95 ± 0.26 %ID/g in data set [3] (setting [12]); 4.21 ± 0.29 %ID/g in data set [3] (setting [13]). Besides, the tissue uptake at 4 h in data set [3] (setting [14]) was determined as 0.66 ± 0.07 %ID/g; in data set [3] (lung, read-out: Uptake in lung) it was 0.13 ± 0.03 %ID/g; in data set [3] (setting [15]), 0.04 ± 0.01 %ID/g; in data set [3] (setting [16]) it was 1.84 ± 0.52 %ID/g; in data set [3] (setting [17]), 0.18 ± 0.05 %ID/g; in data set [3] (setting [18]), 7.03 ± 1.1 %ID/g.
One may read the fraction unbound as free concentration divided by total concentration. Low values mean extensive binding, high ones weak binding. For `CCCC[C@@H](C(=O)N[C@@H](CC(=O)O)C(=O)N[C@@H](Cc1cccc2ccccc12)C(=O)NC)N(C)C(=O)[C@H](Cc1c[nH]c2ccccc12)NC(=O)CNC(=O)[C@H](Cc1ccc(O)cc1)NC(=O)[C@H](C)NC(=O)[C@@H](CCC(=O)O)NC(=O)CN1CCN(CC(=O)O)CCN(CC(=O)O)CCN(CC(=O)O)CC1` [[^111In]In-DOTA-MGS5[NHCH3], metal not drawn], the LogD in data set [2] is -2.33 ± 0.23. In data set [4], this compound showed an unbound share (fraction unbound) at 24 h, 500 pmol/mL of 0.591. Besides, the tissue to tissue ratio at 4 h in data set [3] (setting [5]) turned out to be 69.9 ± 38.3; in data set [3] (setting [7]), 4.33 ± 0.56. The tissue uptake at 4 h amounted to 4.16 ± 1.01 %ID/g in data set [3] (setting [8]); 0.19 ± 0.08 %ID/g in data set [3] (setting [9]); 0.08 ± 0.07 %ID/g in data set [3] (setting [10]); 0.06 ± 0.02 %ID/g in data set [3] (setting [11]); 0.59 ± 0.46 %ID/g in data set [3] (setting [12]); 4.42 ± 1.15 %ID/g in data set [3] (setting [13]). The tissue uptake at 4 h in data set [3] (setting [14]) turned out to be 0.36 ± 0.11 %ID/g; in data set [3] (lung, read-out: Uptake in lung), 0.07 ± 0.01 %ID/g; in data set [3] (setting [15]) it was 0.04 ± 0.02 %ID/g; in data set [3] (setting [16]) it was 0.4 ± 0.04 %ID/g; in data set [3] (setting [17]), 0.13 ± 0.02 %ID/g; in data set [3] (setting [18]), 0.96 ± 0.17 %ID/g.
Consider `CCCC[C@@H](C(=O)N[C@@H](CC(=O)O)C(=O)N[C@@H](Cc1cccc2ccccc12)C(N)=O)N(C)C(=O)[C@H](Cc1c[nH]c2ccccc12)NC(=O)CNC(=O)[C@H](Cc1ccc(O)cc1)NC(=O)[C@H](C)NC(=O)[C@@H](CCCCN)NC(=O)CN1CCN(CC(=O)O)CCN(CC(=O)O)CCN(CC(=O)O)CC1` [[^111In]In-DOTA-[DLys^1]MGS5, metal not drawn] ({DOTA}-[dK]AYGW[NMeNle]D[1Nal]-NH2), for which the LogD in data set [2] was -1.31 ± 0.11. In addition, the tissue to tissue ratio at 4 h in data set [3] (setting [5]) was 176 ± 31.9; in data set [3] (setting [6]) it was below 2; in data set [3] (setting [7]), 4.69 ± 1.19. Besides, the tissue uptake at 4 h in data set [3] (setting [8]) was 33.9 ± 9.53 %ID/g; in data set [3] (setting [9]), 0.56 ± 0.27 %ID/g; in data set [3] (setting [10]), 0.2 ± 0.09 %ID/g; in data set [3] (setting [11]), 0.22 ± 0.06 %ID/g; in data set [3] (setting [12]) it was 1.96 ± 0.87 %ID/g; in data set [3] (setting [13]) it was around 20 %ID/g. The tissue uptake at 4 h stood at 1.94 ± 0.52 %ID/g in data set [3] (setting [14]); 0.3 ± 0.11 %ID/g in data set [3] (lung, read-out: Uptake in lung); 0.13 ± 0.05 %ID/g in data set [3] (setting [15]); 2.27 ± 1.2 %ID/g in data set [3] (setting [16]); 0.54 ± 0.12 %ID/g in data set [3] (setting [17]); 7.73 ± 3.49 %ID/g in data set [3] (setting [18]).
